In patent publication US20230135524A1, “ARYL HYDANTOIN HETEROCYCLES AND METHODS OF USE” (The United States of America,as represented by the …, priority 2020, published 2023):

Target: T1, AR (Homo sapiens, UniProt P10275)
T1 construct: host or cells: HEK 293T
T1 sequence (P10275 1-920): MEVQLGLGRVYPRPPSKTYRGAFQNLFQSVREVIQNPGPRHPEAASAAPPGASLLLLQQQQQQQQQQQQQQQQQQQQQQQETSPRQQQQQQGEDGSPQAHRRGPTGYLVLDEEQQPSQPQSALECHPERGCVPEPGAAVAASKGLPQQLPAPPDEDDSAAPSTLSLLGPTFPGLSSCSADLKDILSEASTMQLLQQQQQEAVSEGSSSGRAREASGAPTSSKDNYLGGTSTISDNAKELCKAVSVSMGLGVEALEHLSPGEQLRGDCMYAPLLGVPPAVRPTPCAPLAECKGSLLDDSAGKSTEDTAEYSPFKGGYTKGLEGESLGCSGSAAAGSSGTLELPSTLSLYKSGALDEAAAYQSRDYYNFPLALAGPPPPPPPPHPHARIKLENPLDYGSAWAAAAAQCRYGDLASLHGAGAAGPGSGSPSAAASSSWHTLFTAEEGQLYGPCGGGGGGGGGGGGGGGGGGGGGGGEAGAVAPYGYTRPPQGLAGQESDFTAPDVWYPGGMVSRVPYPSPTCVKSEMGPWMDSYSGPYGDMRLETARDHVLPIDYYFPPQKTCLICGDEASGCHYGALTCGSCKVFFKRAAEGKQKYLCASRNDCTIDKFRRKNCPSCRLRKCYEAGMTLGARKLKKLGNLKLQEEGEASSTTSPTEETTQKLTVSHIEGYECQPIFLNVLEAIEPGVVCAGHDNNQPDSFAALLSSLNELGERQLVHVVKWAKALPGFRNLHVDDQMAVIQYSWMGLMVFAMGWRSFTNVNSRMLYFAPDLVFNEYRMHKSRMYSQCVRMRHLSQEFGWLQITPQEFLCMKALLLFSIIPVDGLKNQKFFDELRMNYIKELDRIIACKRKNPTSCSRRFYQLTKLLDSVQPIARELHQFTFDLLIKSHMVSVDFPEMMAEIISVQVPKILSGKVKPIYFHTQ
Test: AR transcriptional output, ARE-luciferase assay in HEK 293T cells
Format: cell-based
Experimental: 100% is set to the activity with 200 μM testosterone, and 0% is set to the basal level (no ligand).
Cells were maintained in steroid free media, and stimulated with 200 μM testosterone, followed immediately by administration of exemplary compounds (Table 1, below). RLU is relative luciferase units, relative to DMSO control with 200 μM testosterone alone. Data represent an average of 3 independent experiments performed in triplicate wells per compounds at 10 μM.
Cells were maintained in steroid-free media, and stimulated with 200 μM testosterone, followed immediately by administration of a test compound. […] Compounds were dosed at 10 μM in FIGS. 6A and 6B.
Cells were maintained in steroid-free media, and stimulated with 200 μM testosterone, followed immediately by administration of a test compound.

CC1(C)C(=O)N(c2ccc(C#N)c(C(F)(F)F)c2)C(=S)N1Cc1ccc(-c2c[nH]nn2)cc1 [Compound 15a, 4-(3-(4-(1H-1,2,3-triazol-4-yl)benzyl)-4,4-dimethyl-5-oxo-2-thioxoimidazolidin-1-yl)-2-(trifluoromethyl)benzonitrile]
antagonist or inverse agonist activity on AR transcriptional activity (in words) (10 μM, HEK 293T, FIG. 6A): reduced the transcriptional activity of the AR well below the expression in the absence of any steroids or ligands | activity at 10 µM (HEK-293T, read-out: AR antagonist activity (% RLU)): -109%
